From ChEMBL document CHEMBL1201862, “PubChem BioAssay data set” (2004)
Active and inactive are the calls of the source.

What was measured:
[1] = molecular target: T1, Neuropeptide Y receptor type 1 (Homo sapiens, UniProt P25929); format: functional;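 also: HEK293 cells with a CNG channel challenged with NPY then isoproterenol; potency as antagonist that reverses NPY suppression of cAMP signal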
T1 sequence (P25929 whole entry): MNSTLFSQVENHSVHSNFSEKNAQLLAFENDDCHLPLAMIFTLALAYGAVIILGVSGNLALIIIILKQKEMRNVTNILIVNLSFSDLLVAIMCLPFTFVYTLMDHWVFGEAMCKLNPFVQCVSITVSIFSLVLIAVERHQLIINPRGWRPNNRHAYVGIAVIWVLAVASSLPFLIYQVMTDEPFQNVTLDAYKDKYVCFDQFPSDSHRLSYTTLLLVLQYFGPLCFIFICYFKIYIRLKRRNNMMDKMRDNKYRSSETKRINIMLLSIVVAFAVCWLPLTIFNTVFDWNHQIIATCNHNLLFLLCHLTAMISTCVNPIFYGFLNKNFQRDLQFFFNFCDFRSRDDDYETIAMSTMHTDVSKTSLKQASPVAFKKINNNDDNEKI

[2] = molecular target: T2, Neuropeptide Y receptor type 2 (Homo sapiens, UniProt P49146); format: functional, cell-based;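 also: HEK293 cells expressing the receptor and a CNG channel; stimulus was NPY near EC95 followed by isoproterenol to raise cAMP; antagonist potency measured as restoring cAMP signal that NPY suppresses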
T2 sequence (P49146 whole entry): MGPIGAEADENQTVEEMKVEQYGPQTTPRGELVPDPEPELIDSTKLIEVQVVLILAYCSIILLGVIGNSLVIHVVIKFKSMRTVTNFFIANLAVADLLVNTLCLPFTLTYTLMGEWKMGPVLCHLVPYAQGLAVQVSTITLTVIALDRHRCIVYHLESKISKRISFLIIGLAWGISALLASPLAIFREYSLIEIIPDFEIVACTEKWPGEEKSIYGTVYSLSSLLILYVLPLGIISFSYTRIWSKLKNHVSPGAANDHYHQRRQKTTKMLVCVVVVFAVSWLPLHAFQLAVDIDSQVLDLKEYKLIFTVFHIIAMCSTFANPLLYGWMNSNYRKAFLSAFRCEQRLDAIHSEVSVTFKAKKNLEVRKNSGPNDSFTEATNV

[3] = molecular target: Ras and Rab interactor 1/Tyrosine-protein kinase ABL1 (Homo sapiens, UniProt P00519+Q13671); format: functional;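 also: biochemical TR-FRET dose-response test measuring inhibition of binding between Rin1 and Abl proteins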
Ras and Rab interactor 1/Tyrosine-protein kinase ABL1, sequence (P00519 whole entry): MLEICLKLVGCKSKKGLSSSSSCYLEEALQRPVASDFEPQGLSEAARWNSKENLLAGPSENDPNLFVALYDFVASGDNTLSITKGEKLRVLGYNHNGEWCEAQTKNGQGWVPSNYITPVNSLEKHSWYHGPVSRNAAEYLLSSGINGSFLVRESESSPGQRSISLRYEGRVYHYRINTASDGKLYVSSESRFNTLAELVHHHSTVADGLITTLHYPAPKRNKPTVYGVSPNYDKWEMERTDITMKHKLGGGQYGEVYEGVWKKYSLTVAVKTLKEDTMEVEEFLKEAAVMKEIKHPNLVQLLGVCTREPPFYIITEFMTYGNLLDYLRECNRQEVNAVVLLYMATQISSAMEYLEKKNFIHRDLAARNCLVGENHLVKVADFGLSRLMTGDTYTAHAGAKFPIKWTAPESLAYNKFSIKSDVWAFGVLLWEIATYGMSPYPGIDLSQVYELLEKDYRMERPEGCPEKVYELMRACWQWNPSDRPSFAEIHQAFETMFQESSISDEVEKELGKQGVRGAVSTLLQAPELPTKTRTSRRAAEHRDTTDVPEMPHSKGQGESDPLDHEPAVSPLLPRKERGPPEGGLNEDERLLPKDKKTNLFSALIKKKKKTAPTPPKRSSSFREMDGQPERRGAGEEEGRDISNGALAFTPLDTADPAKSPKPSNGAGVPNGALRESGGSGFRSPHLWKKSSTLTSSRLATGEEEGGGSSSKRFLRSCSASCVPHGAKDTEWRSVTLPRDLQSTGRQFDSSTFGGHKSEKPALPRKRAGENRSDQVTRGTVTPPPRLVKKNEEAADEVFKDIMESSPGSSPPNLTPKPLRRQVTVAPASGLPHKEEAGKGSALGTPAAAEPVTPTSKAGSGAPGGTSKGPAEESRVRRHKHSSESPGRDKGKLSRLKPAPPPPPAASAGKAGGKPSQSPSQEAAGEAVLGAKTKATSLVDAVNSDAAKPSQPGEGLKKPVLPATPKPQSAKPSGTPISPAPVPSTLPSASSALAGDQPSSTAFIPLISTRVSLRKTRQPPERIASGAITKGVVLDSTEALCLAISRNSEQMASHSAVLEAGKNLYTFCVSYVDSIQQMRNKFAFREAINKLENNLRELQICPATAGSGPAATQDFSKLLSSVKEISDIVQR
Ras and Rab interactor 1/Tyrosine-protein kinase ABL1, sequence (Q13671 whole entry): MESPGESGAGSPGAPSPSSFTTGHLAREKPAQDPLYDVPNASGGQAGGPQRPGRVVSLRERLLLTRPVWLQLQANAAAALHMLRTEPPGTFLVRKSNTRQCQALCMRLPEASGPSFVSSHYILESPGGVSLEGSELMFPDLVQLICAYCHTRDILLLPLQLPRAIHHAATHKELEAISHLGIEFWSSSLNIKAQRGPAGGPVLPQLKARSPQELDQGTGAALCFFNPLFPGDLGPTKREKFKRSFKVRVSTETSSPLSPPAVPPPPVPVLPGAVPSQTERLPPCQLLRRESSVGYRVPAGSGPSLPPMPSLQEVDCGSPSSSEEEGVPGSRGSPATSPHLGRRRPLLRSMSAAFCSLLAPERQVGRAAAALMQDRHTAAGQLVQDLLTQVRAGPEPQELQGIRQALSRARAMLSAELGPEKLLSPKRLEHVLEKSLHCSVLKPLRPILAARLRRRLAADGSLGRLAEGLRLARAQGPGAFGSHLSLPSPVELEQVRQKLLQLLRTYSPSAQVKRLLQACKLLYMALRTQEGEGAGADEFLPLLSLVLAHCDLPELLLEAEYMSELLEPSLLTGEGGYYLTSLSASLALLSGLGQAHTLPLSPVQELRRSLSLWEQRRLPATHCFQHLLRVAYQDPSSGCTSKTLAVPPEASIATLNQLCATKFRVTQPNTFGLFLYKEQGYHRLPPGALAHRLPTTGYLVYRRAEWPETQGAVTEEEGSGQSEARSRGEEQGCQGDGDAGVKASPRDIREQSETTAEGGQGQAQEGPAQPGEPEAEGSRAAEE

[4] = Counterscreen for IDE inhibitors: Luminescence-based cell-based high throughput dose response assay to identify compounds that are cytotoxic to HEK cells. [Related pubchem assays: 434962 (Primary screen (IDE inhibitors in singlicate)), 449730 (Counterscreen (Cytotoxicity in triplicate)), 435028 (Confirmation (IDE inhibitors in triplicate)) …; format: functional; conditions: HEK293
Insulin-degrading enzyme = molecular target: T3, Insulin-degrading enzyme (Homo sapiens, UniProt P14735); test: Dose Response: Fluorescence polarization-based cell-based high throughput dose response assay for inhibitors of insulin-degrading enzyme (IDE). [Related pubchem assays: 434962 (Primary screen (IDE inhibitors in singlicate)), 449730 (Counterscreen (Cytotoxicity in triplicate)), 435028 (Confirmation (IDE inhibitors in triplicate)), 434984 (Summary …; format: functional
T3 sequence (P14735 whole entry): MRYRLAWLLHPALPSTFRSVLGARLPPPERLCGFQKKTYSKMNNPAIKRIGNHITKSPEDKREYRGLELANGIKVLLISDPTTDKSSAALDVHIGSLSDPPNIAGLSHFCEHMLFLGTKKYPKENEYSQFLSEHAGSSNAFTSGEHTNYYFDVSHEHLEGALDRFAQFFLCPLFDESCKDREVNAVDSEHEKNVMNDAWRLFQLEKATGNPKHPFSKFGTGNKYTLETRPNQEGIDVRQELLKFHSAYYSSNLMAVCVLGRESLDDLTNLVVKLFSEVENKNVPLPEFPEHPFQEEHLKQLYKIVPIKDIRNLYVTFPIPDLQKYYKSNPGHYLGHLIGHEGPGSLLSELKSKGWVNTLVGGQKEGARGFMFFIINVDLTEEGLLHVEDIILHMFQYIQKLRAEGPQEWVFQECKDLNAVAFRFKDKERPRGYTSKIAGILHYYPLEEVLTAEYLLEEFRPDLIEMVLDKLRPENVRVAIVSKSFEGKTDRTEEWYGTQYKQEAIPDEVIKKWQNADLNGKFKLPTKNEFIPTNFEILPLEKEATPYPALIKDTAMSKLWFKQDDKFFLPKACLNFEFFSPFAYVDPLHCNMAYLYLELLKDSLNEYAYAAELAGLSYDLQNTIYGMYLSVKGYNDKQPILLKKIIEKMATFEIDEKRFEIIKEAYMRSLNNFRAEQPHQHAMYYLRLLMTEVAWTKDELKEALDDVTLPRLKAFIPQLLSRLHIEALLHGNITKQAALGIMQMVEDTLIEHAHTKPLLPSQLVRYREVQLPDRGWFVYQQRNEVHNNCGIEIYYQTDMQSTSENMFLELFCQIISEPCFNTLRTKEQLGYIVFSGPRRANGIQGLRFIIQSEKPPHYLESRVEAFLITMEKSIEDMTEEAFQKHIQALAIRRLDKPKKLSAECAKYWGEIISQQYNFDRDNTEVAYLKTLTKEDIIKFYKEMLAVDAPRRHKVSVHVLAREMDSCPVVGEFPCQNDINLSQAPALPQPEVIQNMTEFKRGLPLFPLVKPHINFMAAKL

Cytochrome P450 2D6 = Cytochrome P450 2D6 (Homo sapiens, UniProt P10635); test: qHTS Assay for Inhibitors and Substrates of Cytochrome P450 2D6. [Related pubchem assays: 410 ]; format: ADME; conditions: read-out: Potency
Cytochrome P450 2D6, sequence (P10635 whole entry): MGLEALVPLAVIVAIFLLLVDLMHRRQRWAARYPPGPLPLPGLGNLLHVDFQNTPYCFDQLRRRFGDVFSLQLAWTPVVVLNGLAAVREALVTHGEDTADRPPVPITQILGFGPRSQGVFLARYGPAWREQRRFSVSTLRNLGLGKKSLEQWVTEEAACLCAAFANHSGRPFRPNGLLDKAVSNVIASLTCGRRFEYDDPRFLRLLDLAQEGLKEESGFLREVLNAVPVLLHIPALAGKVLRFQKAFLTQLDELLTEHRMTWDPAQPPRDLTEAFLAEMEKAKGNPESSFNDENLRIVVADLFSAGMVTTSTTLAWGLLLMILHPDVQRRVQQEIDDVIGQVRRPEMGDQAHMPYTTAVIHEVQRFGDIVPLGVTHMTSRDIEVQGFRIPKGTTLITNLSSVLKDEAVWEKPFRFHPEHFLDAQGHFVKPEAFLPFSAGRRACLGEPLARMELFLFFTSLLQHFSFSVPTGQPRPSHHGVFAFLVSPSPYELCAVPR

[5] = Luminescence Cell-Based Dose Confirmation HTS to Identify Activators of 5'UTR Stem-Loop Driven Alpha-Synuclein mRNA Translation in H4 Neuroglioblastoma Cells. [Related pubchem assays: 1829 (Project Summary), 1814 (Primary HTS)]; format: functional
[6] = molecular target: Lysosomal acid glucosylceramidase (Homo sapiens, UniProt P04062); test: Dose response cell-based high throughput screening assay to identify enhancers of beta-glucosidase activity. [Related pubchem assays: 784 ]; format: functional
Lysosomal acid glucosylceramidase, sequence (P04062 whole entry): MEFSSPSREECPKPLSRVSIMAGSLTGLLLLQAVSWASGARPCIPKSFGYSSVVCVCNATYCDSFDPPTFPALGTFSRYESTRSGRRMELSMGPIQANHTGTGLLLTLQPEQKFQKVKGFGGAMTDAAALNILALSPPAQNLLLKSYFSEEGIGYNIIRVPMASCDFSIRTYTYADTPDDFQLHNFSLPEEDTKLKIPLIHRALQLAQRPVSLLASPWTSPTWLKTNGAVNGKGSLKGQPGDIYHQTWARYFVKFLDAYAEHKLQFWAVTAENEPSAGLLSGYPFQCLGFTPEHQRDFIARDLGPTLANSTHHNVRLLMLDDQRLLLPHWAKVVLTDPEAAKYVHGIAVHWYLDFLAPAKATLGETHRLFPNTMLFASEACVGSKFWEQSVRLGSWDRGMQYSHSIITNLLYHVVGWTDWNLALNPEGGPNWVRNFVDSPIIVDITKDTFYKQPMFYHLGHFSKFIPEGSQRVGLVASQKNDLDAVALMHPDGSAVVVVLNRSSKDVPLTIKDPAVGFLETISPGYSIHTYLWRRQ

[7] = Luminescence Cell-Based Dose Response HTS to Identify Activators of Luciferase Translation or Activity in H4 […] Cells. [Related pubchem assays: 1829 (Project Summary), 1814 (Primary HTS)]; format: functional
H4 = test: Luminescence Cell-Based Dose Response HTS to Identify Activators of 5'UTR Stem-Loop Driven Prion Protein mRNA Translation in H4 Neuroglioblastoma Cells. [Related pubchem assays: 1829 (Project Summary), 1814 (Primary HTS)]; format: functional; conditions: Homo sapiens
[8] = molecular target: Peroxisome proliferator-activated receptor gamma (Homo sapiens, UniProt P37231); test: PPARg ligand-binding domain binders, dose response, PPARg partial agonist project, biochemical, TR-FRET, LanthaScreen (AID 504446)
Peroxisome proliferator-activated receptor gamma, sequence (P37231 whole entry, the tested form may be a part): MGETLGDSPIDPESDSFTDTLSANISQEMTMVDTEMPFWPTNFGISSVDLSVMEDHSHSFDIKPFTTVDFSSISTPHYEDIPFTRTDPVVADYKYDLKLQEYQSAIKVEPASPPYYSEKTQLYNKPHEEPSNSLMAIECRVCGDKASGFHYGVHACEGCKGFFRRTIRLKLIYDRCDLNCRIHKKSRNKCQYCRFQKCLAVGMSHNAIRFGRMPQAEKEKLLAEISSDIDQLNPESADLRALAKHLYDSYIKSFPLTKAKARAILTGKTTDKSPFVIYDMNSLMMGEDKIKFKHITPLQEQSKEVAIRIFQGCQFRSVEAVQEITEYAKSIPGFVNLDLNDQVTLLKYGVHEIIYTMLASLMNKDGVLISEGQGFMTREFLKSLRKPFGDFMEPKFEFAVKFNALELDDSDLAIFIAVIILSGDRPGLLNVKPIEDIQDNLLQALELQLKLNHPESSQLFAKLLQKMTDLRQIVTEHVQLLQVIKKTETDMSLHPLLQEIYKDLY

[9] = molecular target: G-protein coupled receptor 35 (Homo sapiens, UniProt Q9HC97); test: GPR35 antagonists blocking zaprinast-driven arrestin recruitment, primary screen, imaging, U2OS, beta-arrestin-GFP, zaprinast agonist (AID 2058); format: functional;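 also: antagonist potency meaning inhibition of agonist-induced arrestin redistribution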
G-protein coupled receptor 35, sequence (Q9HC97 whole entry): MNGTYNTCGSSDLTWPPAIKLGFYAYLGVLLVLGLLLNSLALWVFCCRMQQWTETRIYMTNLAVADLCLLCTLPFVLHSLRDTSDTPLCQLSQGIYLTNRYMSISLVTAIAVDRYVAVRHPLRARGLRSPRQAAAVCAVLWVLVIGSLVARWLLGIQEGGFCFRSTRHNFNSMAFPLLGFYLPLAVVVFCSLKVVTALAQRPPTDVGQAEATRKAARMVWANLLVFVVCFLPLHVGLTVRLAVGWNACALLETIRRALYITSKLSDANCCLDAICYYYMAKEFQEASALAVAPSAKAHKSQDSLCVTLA

**Q.** With `CCOC(=O)CCCCC(=O)c1[nH]c(O)nc1CSc1nnc2c3ccccc3n(C(C)C)c2n1` as the compound, how does the IC50 [1] read?
**A.** The IC50 was 7.63 µM (active).

**Q.** What about the IC50 [2] of the same compound?
**A.** The IC50 was 2.95 µM (active).

**Q.** What about the IC50 [3] of the same compound?
**A.** The IC50 was 3.46 µM (active).

**Q.** Which results are given for `CN(C)c1ccc(/C=C2\SC(N3CCCCC3)=NC2=O)cc1`?
**A.** IC50 [4]: 23 µM (not active); IC50 (Insulin-degrading enzyme): 17.9 µM (not active)

**Q.** With `COc1ccc2c(c1O)-c1c(OC)c(OC)cc3c1[C@@H](C2)N(C)CC3` as the compound, how does the AC50 (Cytochrome P450 2D6) read?
**A.** Its AC50 is 15.8 µM (inconclusive).

**Q.** With `COC(=O)c1sc(NC(=O)c2csc3c2CCCC3)nc1C` as the compound, how does the EC50 [5] read?
**A.** Its EC50 is 0.155 µM (active).

**Q.** And the EC50 [6]?
**A.** Its EC50 is > 50 µM (not active).

**Q.** And the EC50 [7]?
**A.** Its EC50 is 0.575 µM (active).

**Q.** And the EC50 (H4)?
**A.** Its EC50 is 1.8 µM (active).

**Q.** For `O=C(O)CCN1C(=O)/C(=C/c2ccc(C(F)(F)F)cc2C(F)(F)F)SC1=S`, which IC50 [8] is on record?
**A.** Its IC50 is 2 µM (active).

**Q.** For `CCCCCOC(=O)c1ccc(NC(=O)c2cccc(NC(=O)c3ccccc3C(=O)O)c2)cc1`, which IC50 [9] is on record?
**A.** Its IC50 is 1 µM (active).
